In brackets after ≈: the same amount, converted by molar mass.
Columns and labels:
RalB-GDP [1] = target: T1, RalB-GDP (Homo sapiens, UniProt P11234, Q72L); test: Differential scanning fluorometry (DSF); format: binding; details: 10 μM RalB-GDP, 1% DMSO
T1 construct: made in house
T1 sequence (P11234 1-206 Q72L): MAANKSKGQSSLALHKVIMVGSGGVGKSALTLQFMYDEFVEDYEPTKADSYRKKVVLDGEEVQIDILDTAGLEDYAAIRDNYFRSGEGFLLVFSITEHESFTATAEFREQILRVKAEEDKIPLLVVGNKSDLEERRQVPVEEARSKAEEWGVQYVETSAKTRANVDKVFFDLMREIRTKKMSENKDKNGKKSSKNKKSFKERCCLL
Experimental: Differential scanning fluorometry (DSF) was used to evaluate binding between compounds and RalB-GDP. The melting temperature was measured by monitoring the increase of SYPRO orange that binds to hydrophobic regions of the protein. DSF was performed by preparing a plate containing 10 μM RalB-GDP and 10 μM RalB-GPNPP, 4×SYPRO orange in 20 mM Tris PH 8.0, 200 mM NaCl, 2.5 mM MgCl2 and 1 mM DTT buffer. Test compound was added to each well ensuring that the final concentration of DMSO was 1% across all samples. The thermal melting curves were obtained on a Light cycler 480 (Roche). The melting temperature was obtained by normalizing the curves and obtaining the temperature at the midpoint of the transition curve.

RalB-GDP [2] = target: T1, RalB-GDP; test: Isothermal Titration Calorimetry (ITC); format: binding; details: 25° C.; 50 mM sodium phosphate pH 7.6; 1% DMSO
Experimental: (§1) Consequently, the binding of BQU57 to RalB-GDP was then determined using Isothermal Titration Calorimetry (ITC). ITC experiments were carried out using the MicroCal iTC200 system. Both protein and drug were prepared in 50 mM sodium phosphate, pH 7.6, 100 mM NaCl, and 1 mM MgCl2. Final DMSO concentration was adjusted to 1%. RalB-GDP protein (500 μM) were loaded into the syringe and titrated into drug (25 μM) or buffer alone as control. All experiments were carried out at 25° C. […] SPR experiments were carried out using the Biacore 3000 system. Running buffer: PBS, pH 7.4, 1 μM GDP, 2 mM MgCl2, 3% DMSO. Regeneration buffer: PBS, pH 7.4, 1 μM GDP, 2 mM Mg Cl2. RalB protein was immobilized on CM5 chip; samples of compound BQU57 in running buffer were injected at 30 μL/min for 60 s contact time followed by 5 minute regeneration.

physchem = format: physicochemical; details: aqueous buffer
RalB-GDP [3] = target: T1, RalB-GDP; test: Surface Plasma Resonance (SPR) binding, Biacore 3000; details: RalB immobilized on CM5 chip; PBS pH 7.4, 1 μM GDP, 2 mM MgCl2, 3% DMSO
Experimental: as §1

With `Cc1nn(C)c2c1C(c1ccc(C(F)(F)F)cc1)C(C#N)=C(N)O2` (stereo not shown) [BQU57, 6-amino-1,3-dimethyl-4-(4-(trifluoromethyl)phenyl)-1,4-dihydropyrano[2,3-c]pyrazole-5-carbonitrile] as the compound, how does the “binding to RalB-GDP by DSF (melting temperature)” value (RalB-GDP [1]) read?
The value was “dose-dependent binding”.

And the Kd (RalB-GDP [2])?
The Kd was 7.7 ± 0.6 µM.

And the solubility (physchem)?
The solubility was about 75 µM (≈ 25.1 µg/mL).

What about the Kd (RalB-GDP [3]) of the same compound?
Its Kd is 4.7 ± 1.5 µM.
